Laboratory results from patent US20260060960A1, “GAMMA-SECRETASE INHIBITORS FOR USE IN THE TREATMENT OF INHERITED EPIDERMOLYSIS BULLOSA” (OSPEDALE PEDIATRICO BAMBINO GESU', priority 2022, published 2026).
“Also recorded” adds a separate entry of the source.

Tests used:
Type in all cases: cell-based, human
[1] = test system: NOTCH1 intracellular domain (N1-ICD); test: Immunoblotting of cleaved NOTCH1 (N1-ICD) in nuclear extracts of RDEB fibroblasts; conditions: 24 h; for intranuclear levels of N1-ICD: RDEB-FBs, 5, 10 and 20 μM
Excerpt: (§1) 3-(4,5-dimethyl-2-thiazolyl)-2,5-diphenyl-2H-tetrazolium bromide (MTT) assay showing the impact of DAPT and PF-03084014 treatment on viability and proliferation rate of three primary fibroblast strains from healthy controls (NH-FBs). Absorbance values (Abs) were converted in percentage by using the following formula: AbsDAPT or PF-03084014×100/AbsREFERENCE WELLS. Data are presented as mean±standard deviation (SD) of at least eight technical replicates per condition. Cells treated with the vehicle DMSO (Panel A), and cells analyzed 24 h after seeding (T0) (Panel B) were considered as reference wells. NH-FBs were growth in DMEM medium containing 10% fetal bovine serum (FBS). […] Based on the results, it was chosen to use GSIs at 20 μM (black arrows) as it was the minimal drug concentration inducing a reduction of cell proliferation after 24 h of treatment. (Panel C) Immunoblotting analysis showing the protein levels of the cleaved and biologically active form of NOTCH1 receptor (N1-ICD, NOTCH1 intracellular domain) in nuclear extracts of primary fibroblasts from RDEB patients (RDEB-FBs, n=2) treated for 24 h with DAPT and PF-03084014 at different doses, ranging from 0.1 to 20 μM. Cells treated with the vehicle dimethyl sulfoxide (DMSO) were used as control. The reduced nuclear localization of N1-ICD indicates Notch pathway inhibition. […] Lamin B1 (LMNB1) and glyceraldehyde-3-phosphate dehydrogenase (GAPDH) served as loading controls for the nuclear and cytoplasmic protein fractions, respectively. **P-value <0.01, ***P<0.001.
RDEB-FBs were seeded on 100 mm cell culture dishes (8×10^5 cells/dish). Subconfluent cells were treated with different concentrations of PF-03084014 or DAPT for 24 h (FIG. 1—Panel C) or with 2 ng/mL of TGF-β1 for 6 h (FIG. 3D). DMSO-treated cells were used as controls. After cell harvesting with trypsin-EDTA, cytoplasmic and nuclear lysates were obtained using NE-PER™ Nuclear and Cytoplasmic Extraction Reagents kit (Thermo Fisher Scientific), following the manufacturer's instructions with slight modifications. […]

[2] = test system: primary fibroblast strains from healthy controls (NH-FBs); test: MTT viability/proliferation assay on primary fibroblasts from healthy controls
Excerpt: as §1
GSIs halt the processing of Notch receptor, and, in turn, play a role as indirect inhibitors of Notch signaling cascade. Following their reconstitution at 10 mM in dimethyl sulfoxide (DMSO), GSI aliquots were stored at −20° C. until use, avoiding freeze-thaw cycles. GSI treatment was performed in DMEM containing 10% FBS, unless otherwise specified. According to previous reports, RDEB-FBs were serum-starved overnight in DMEM containing BSA prior to be treated with GSIs. Cells treated with the vehicle DMSO were used as controls. GSIs were used at different concentrations ranging from 1 to 20 μM depending on the assay. […]
Proliferation rate was assessed by 3-(4,5-dimethyl-2-thiazolyl)-2,5-diphenyl-2H-tetrazolium bromide (MTT) assay, following the manufacturer's protocol. […] Thereafter, cells were lysed in DMSO to dissolve formazan crystals and absorbance values were recorded at 560 nm with an Infinite F50 microplate reader (Tecan, Mannedorf, Switzerland). Values recorded 24 h after cell seeding, before GSI stimulation (TO) were used as reference. […]

[3] = test system: primary fibroblasts from RDEB patients (RDEB-FBs); test: Oris cell migration assay; conditions: 24 h, vs non-treated cells
Method: Migration rate was evaluated using an Oris™ Cell Migration Assay Kit (Platypus Technologies, Madison, WI, USA) following the manufacturer's instructions. Briefly, cells were seeded at high density (5×10^4 per well) onto 96-well plates containing medical-grade silicon stoppers that restrict cell seeding to an outer annular region of the well, and serum starved overnight. The day after, silicon stoppers were removed and cells were transfected. Analysis of cell migration into the detection zone was performed after Giemsa stain (Sigma-Aldrich). The detection zone was photographed with a Leica DMi8 microscope (Leica Microsystems, Wetzlar, Germany) at 0 h (premigration controls) and 24 h after stopper removal. ImageJ was used to calculate the percentage of cell-free area. The cell migration assay of RDEB-FBs and NH-FBs grown under basal conditions was performed following the same protocol.

| SMILES | intranuclear levels of N1-ICD [1] | proliferation rate (MTT) ([2]; 20 and 40 μM, 48 h, vs DMSO) | ability to migrate into the cell-free area [3] | nuclear N1-ICD protein levels (NOTCH1 cleavage and nuclear translocation) ([1]; RDEB-FBs, 0.1, 0.5, 1 μM, compared with DAPT) | cell viability (MTT) compared to cells before GSI treatment (T0) ([2]; 40 μM) | fibroblast proliferation / cytotoxicity (MTT) ([2]; 5-20 μM) | effects on proliferation rate (MTT) ([2]; 20 and 40 μM at 24 h, 5 and 10 μM at 48 h, vs DMSO) |
| --- | --- | --- | --- | --- | --- | --- | --- |
| C[C@H](NC(=O)Cc1cc(F)cc(F)c1)C(=O)N[C@H](C(=O)OC(C)(C)C)c1ccccc1 [DAPT, N—[N-(3,5-difluorophenacetyl)-L-alanyl]-S-phenylglycine t-butyl ester] | comparable impact on the intranuclear levels of N1-ICD | slight but statistically significant reduction of proliferation rate | significant decrease of RDEB-FB ability to migrate | – | – | – | – |
| CCC[C@H](N[C@H]1CCc2cc(F)cc(F)c2C1)C(=O)Nc1cn(C(C)(C)CNCC(C)(C)C)cn1 [PF-03084014, (S)-2-((S)-5,7-difluoro-1,2,3,4-tetrahydronaphthalen-3-ylamino)-N-(1-(2-methyl-1-(neopentylamino)propan-2-yl)-1H-imidazol-4-yl)pentanamide] | comparable impact on the intranuclear levels of N1-ICD | – | significant decrease of RDEB-FB ability to migrate | huge reduction; also recorded: greater ability of PF-03084014 in inhibiting NOTCH1 cleavage and its nuclear translocation | reduction of cell viability | affected fibroblast proliferation in a time- and dose-dependent manner, in the absence of overt cytotoxicity | observed after 24 h of treatment, and became more evident after 48 h of treatment, even at low doses (5 and 10 μM) |
